*1 amine or outer side, *2 acyl side, *3 side chain or, on linkers, in order; H or OH if unused. Where a SMILES comes first, the peptide text is derived from it. Bridges are numbered along the chain shown (N, C = ends). [ ]: non-standard residue; d: D form. The star is where a group is joined. ξ: configuration not given here. Phe(3-CF3) = N[C@@H](Cc1cccc(C(F)(F)F)c1)C(=O)O; Phe(4-CF3) = N[C@@H](Cc1ccc(C(F)(F)F)cc1)C(=O)O; Phe(4-COOH) = N[C@@H](Cc1ccc(C(=O)O)cc1)C(=O)O; Bip = N[C@@H](Cc1ccc(-c2ccccc2)cc1)C(=O)O; Phe(3-Me) = Cc1cccc(C[C@H](N)C(=O)O)c1; γGlu = O=C(O)[C@H](CCC(=O)[*:2])N[*:1]; Abu(3S-NH2) = C[C@H](N)[C@H](N)C(=O)O; βAsp = O=C(O)[C@H](CC(=O)[*:2])N[*:1]; NH(CH2)12COOH = O=C(O)CCCCCCCCCCCCN*; Val(3-OH) = CC(C)(O)[C@H](N)C(=O)O; hArg = N=C(N)NCCCC[C@H](N)C(=O)O; 4Pal = N[C@@H](Cc1ccncc1)C(=O)O; Cha = N[C@@H](CC1CCCCC1)C(=O)O; Cit = NC(=O)NCCC[C@H](N)C(=O)O; Ile(3ξ) = CCC(C)[C@H](N)C(=O)O; Thr(3ξ) = CC(O)[C@H](N)C(=O)O; 12Ado = NCCCCCCCCCCCC(=O)O; Carboxymethyl = O=C(O)C*; NMeA = CN[C@@H](C)C(=O)O; Orn = NCCC[C@H](N)C(=O)O; Aun = NCCCCCCCCCCC(=O)O; Dab = NCC[C@H](N)C(=O)O; Dap = NC[C@H](N)C(=O)O; AEEA = NCCOCCOCC(=O)O; Sar = CNCC(=O)O

The target of one test is T1, PD-1/PD-L1 interaction (PE-labeled human PD-L1-Ig binding to Jurkat cell line over-expressing human PD-1) (Homo sapiens, UniProt Q15116).
T1 construct: expressed in transfected cells; host or cells: Jurkat
T1 sequence (Q15116 25-288): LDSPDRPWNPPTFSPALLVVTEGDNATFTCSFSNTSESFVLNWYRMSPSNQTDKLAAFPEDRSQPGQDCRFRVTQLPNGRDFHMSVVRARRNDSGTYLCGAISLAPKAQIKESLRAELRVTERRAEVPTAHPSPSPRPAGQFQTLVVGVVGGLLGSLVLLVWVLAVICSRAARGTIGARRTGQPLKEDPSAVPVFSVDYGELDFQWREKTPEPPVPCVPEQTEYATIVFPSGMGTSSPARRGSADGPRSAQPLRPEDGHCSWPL
The test is described as follows: Jurkat-PD-1 Cell Binding High-Content Screening Assay (CBA). The settings on record: Jurkat-hPD-1 cells, PE-labeled PD-L1-Ig 20 nM final; read-out: Jurkat HPD1 PDL1 IC50. In outline: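 Read-out: high-content imaging of cell-bound PE fluorescence, with Hoechst 33342 nuclear counterstain after paraformaldehyde fixation. Before labeled ligand (20 nM final, 1 h) was added, compound sat on the cells for 2 h at 37 °C in DMEM/10% FCS.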
As for `CC(C)C[C@@H]1NC(=O)[C@H](Cc2c[nH]c3ccccc23)NC(=O)[C@H](CC(=O)O)NC(=O)[C@H](Cc2ccc(C(=O)O)cc2)NC(=O)[C@H](Cc2ccc(OCC(=O)O)cc2)NC(=O)CSC[C@@H](C(=O)N[C@@H](CCN)C(=O)NCCOCCOCC(=O)NCCCCCCCCCCC(=O)O)NC(=O)[C@H](CCCNC(N)=O)NC(=O)[C@H](C(C)C)NC(=O)[C@H](CC2CCCCC2)NC(=O)[C@H](CCN)NC(=O)[C@@H](CC(C)C)NC(=O)[C@H](C)N(C)C(=O)[C@H](C(C)C)NC(=O)[C@H](Cc2ccc(-c3ccccc3)cc2)NC1=O` [Example 2127] ({CH2CO}-Y(Carboxymethyl)[Phe(4-COOH)]DWL[Bip]V[NMeA][dL][Dab][Cha]V[Cit]C[Dab][AEEA][Aun]-OH; thioether N-14), the IC50 is 10.4 nM.

For the molecule `CC(C)C[C@@H]1NC(=O)[C@H](Cc2c[nH]c3ccccc23)NC(=O)[C@H](CC(=O)O)NC(=O)[C@H](Cc2ccc(OCC(=O)O)cc2)NC(=O)[C@H](C(C)O)NC(=O)CSC[C@@H](C(=O)NCCOCCOCC(=O)NCCCCCCCCCCC(=O)O)NC(=O)[C@H](CCC(=O)O)NC(=O)[C@H](C(C)C)NC(=O)[C@H](CC2CCCCC2)NC(=O)[C@H](CCN)NC(=O)[C@@H](CC(C)C)NC(=O)[C@H](C)N(C)C(=O)[C@H](C(C)C)NC(=O)[C@H](Cc2ccc(-c3ccccc3)cc2)NC1=O` (stereo partly drawn) [Example 2291] ({CH2CO}-[Thr(3ξ)]Y(Carboxymethyl)DWL[Bip]V[NMeA][dL][Dab][Cha]VEC[AEEA][Aun]-OH; thioether N-14), the IC50 was determined as 28.9 nM.

Take `CC(C)C[C@@H]1NC(=O)[C@H](Cc2c[nH]c3ccccc23)NC(=O)[C@H](CC(=O)O)NC(=O)[C@H](Cc2ccc(O)cc2)NC(=O)[C@H](Cc2ccccc2)NC(=O)CSC[C@@H](C(=O)N[C@@H](CCCN)C(=O)NCCOCCOCC(=O)NCCCCCCCCCCC(=O)O)NC(=O)[C@H](CO)NC(=O)[C@H](C(C)C)NC(=O)[C@H](CC2CCCCC2)NC(=O)[C@H](CCN)NC(=O)[C@@H](CC(C)C)NC(=O)[C@H](C)N(C)C(=O)[C@H](C(C)C)NC(=O)[C@H](Cc2ccc(-c3ccccc3)cc2)NC1=O` [Example 2148] ({CH2CO}-FYDWL[Bip]V[NMeA][dL][Dab][Cha]VSC[Orn][AEEA][Aun]-OH; thioether N-14): the IC50 was 54.1 nM.

With `CCC(C)[C@@H]1NC(=O)[C@H](Cc2ccc(-c3ccccc3)cc2)NC(=O)[C@H](C(C)C)NC(=O)[C@H](Cc2c[nH]c3ccccc23)NC(=O)[C@H](CC(=O)O)NC(=O)[C@H](Cc2ccc(OCC(=O)O)cc2)NC(=O)[C@H](C(C)O)NC(=O)CSC[C@@H](C(=O)N[C@@H](CCCN)C(=O)N[C@@H](CCC(=O)NCCCCCCCCCCCC(=O)O)C(=O)O)NC(=O)[C@H](C(C)O)NC(=O)[C@H](C(C)C)NC(=O)[C@H](CC2CCCCC2)NC(=O)[C@H](CCN)NC(=O)[C@@H](CC(C)C)NC(=O)[C@H](C)N(C)C1=O` (stereo partly drawn) [Example 2417] ({CH2CO}-[Thr(3ξ)]Y(Carboxymethyl)DWV[Bip][Ile(3ξ)][NMeA][dL][Dab][Cha]V[Thr(3ξ)]C[Orn][γGlu][12Ado]-OH; thioether N-14), the IC50 is 32.3 nM.

Consider `Cc1cccc(C[C@@H]2NC(=O)[C@H](CC(=O)O)NC(=O)[C@H](Cc3ccc(OCC(=O)O)cc3)NC(=O)[C@H](CCCNC(=N)N)NC(=O)CSC[C@@H](C(=O)N(C)CC(=O)NCCCCCCCCCCC(=O)O)NC(=O)[C@H](CCCNC(N)=O)NC(=O)[C@H](C(C)C)NC(=O)[C@H](CC3CCCCC3)NC(=O)[C@H](CCN)NC(=O)[C@@H](CC(C)C)NC(=O)[C@H](C)N(C)C(=O)[C@H](C(C)C)NC(=O)[C@H](Cc3ccc(-c4ccccc4)cc3)NC(=O)[C@H](C(C)C)NC2=O)c1` [Example 2260] ({CH2CO}-RY(Carboxymethyl)D[Phe(3-Me)]V[Bip]V[NMeA][dL][Dab][Cha]V[Cit]C[Sar][Aun]-OH; thioether N-14), for which the IC50 amounted to 28.5 nM.

As for `CC(C)C[C@@H]1NC(=O)[C@H](Cc2c[nH]c3ccccc23)NC(=O)[C@H](CC(=O)O)NC(=O)[C@H](Cc2ccc(OCC(=O)O)cc2)NC(=O)[C@H](CCCCNC(=N)N)NC(=O)CSC[C@@H](C(=O)N[C@@H](CC(N)=O)C(=O)NCCOCCOCC(=O)N[C@@H](CC(=O)NCCCCCCCCCCC(=O)O)C(=O)O)NC(=O)[C@H](CO)NC(=O)[C@H](C(C)C)NC(=O)[C@H](CC(C)C)NC(=O)[C@H](CC(N)=O)NC(=O)[C@@H](CC(C)C)NC(=O)[C@H](C)N(C)C(=O)[C@H](C(C)C)NC(=O)[C@H](Cc2ccc(-c3ccccc3)cc2)NC1=O` [Example 2012] ({CH2CO}-[hArg]Y(Carboxymethyl)DWL[Bip]V[NMeA][dL]NLVSCN[AEEA][βAsp][Aun]-OH; thioether N-14), the IC50 came to 21 nM.

`CC(=O)NCCCC[C@@H]1NC(=O)[C@H](C(C)(C)O)NC(=O)[C@H](CC2CCCCC2)NC(=O)[C@H](CCN)NC(=O)[C@@H](CC(C)C)NC(=O)[C@H](C)N(C)C(=O)[C@H](CCC(N)=O)NC(=O)[C@H](Cc2ccc(-c3ccccc3)cc2)NC(=O)[C@H](Cc2ccc(C(=O)O)cc2)NC(=O)[C@H](Cc2cccc(C(F)(F)F)c2)NC(=O)[C@H](CC(=O)O)NC(=O)[C@H](Cc2ccc(OCC(=O)O)cc2)NC(=O)[C@H]([C@H](C)N)NC(=O)CSC[C@@H](C(=O)N[C@@H](CCN)C(=O)NCCCCCCCCCCCCC(=O)O)NC1=O` [Example 1191] ({CH2CO}-[Abu(3S-NH2)]Y(Carboxymethyl)D[Phe(3-CF3)][Phe(4-COOH)][Bip]Q[NMeA][dL][Dab][Cha][Val(3-OH)]K(Ac)C[Dab]-{NH(CH2)12COOH}; thioether N-14): the IC50 stood at 7.4 nM.

Take `Cc1cccc(C[C@@H]2NC(=O)[C@H](CC(=O)O)NC(=O)[C@H](Cc3ccc(OCC(=O)O)cc3)NC(=O)[C@H](CN)NC(=O)CSC[C@@H](C(=O)NCCOCCOCC(=O)NCCCCCCCCCCC(=O)O)NC(=O)[C@H](CCCN)NC(=O)[C@H](C(C)C)NC(=O)[C@H](CC3CCCCC3)NC(=O)[C@H](CCN)NC(=O)[C@@H](CC(C)C)NC(=O)[C@H](C)N(C)C(=O)[C@H](Cc3ccc(O)cc3)NC(=O)[C@H](Cc3ccc(-c4ccccc4)cc3)NC(=O)[C@H](C(C)C)NC2=O)c1` [Example 1317] ({CH2CO}-[Dap]Y(Carboxymethyl)D[Phe(3-Me)]V[Bip]Y[NMeA][dL][Dab][Cha]V[Orn]C[AEEA][Aun]-OH; thioether N-14): the IC50 worked out at 36.5 nM.

With `Cc1cccc(C[C@@H]2NC(=O)[C@H](CC(=O)O)NC(=O)[C@H](Cc3ccc(OCC(=O)O)cc3)NC(=O)[C@H](CCCNC(=N)N)NC(=O)CSC[C@@H](C(=O)N[C@@H](CCN)C(=O)NCCCCCCCCCCC(=O)O)NC(=O)[C@H](C(C)O)NC(=O)[C@H](C(C)C)NC(=O)[C@H](CC3CCCCC3)NC(=O)[C@H](CCN)NC(=O)[C@@H](CC(C)C)NC(=O)[C@H](C)N(C)C(=O)[C@H](CCC(N)=O)NC(=O)[C@H](Cc3ccc(-c4ccccc4)cc3)NC(=O)[C@H](C(C)C)NC2=O)c1` (stereo partly drawn) [Example 2233] ({CH2CO}-RY(Carboxymethyl)D[Phe(3-Me)]V[Bip]Q[NMeA][dL][Dab][Cha]V[Thr(3ξ)]C[Dab][Aun]-OH; thioether N-14), the IC50 turned out to be 9.7 nM.

As to `CCC(C)[C@@H]1NC(=O)[C@H](Cc2ccc(-c3ccccc3)cc2)NC(=O)[C@H](CC(C)C)NC(=O)[C@H](Cc2c[nH]c3ccccc23)NC(=O)[C@H](CC(=O)O)NC(=O)[C@H](Cc2ccc(OCC(=O)O)cc2)NC(=O)[C@H](Cc2ccncc2)NC(=O)CSC[C@@H](C(=O)N[C@@H](CCCN)C(=O)NCCOCCOCC(=O)NCCCCCCCCCCC(=O)O)NC(=O)[C@H](CO)NC(=O)[C@H](C(C)C)NC(=O)[C@H](CC2CCCCC2)NC(=O)[C@H](Cc2c[nH]cn2)NC(=O)[C@@H](CC(C)C)NC(=O)[C@H](C)N(C)C1=O` (stereo partly drawn) [Example 2087] ({CH2CO}-[4Pal]Y(Carboxymethyl)DWL[Bip][Ile(3ξ)][NMeA][dL]H[Cha]VSC[Orn][AEEA][Aun]-OH; thioether N-14), the IC50 is 50.7 nM.

The same test, now with this note: PE-labeled PD-L1-Ig 20 nM final, Jurkat-hPD-1 cells; read-out: Jurkat HPD1 PDL1 IC50.
With `CC(C)C[C@H]1NC(=O)[C@H](C)N(C)C(=O)[C@H](Cc2ccc(C(=O)O)cc2)NC(=O)[C@H](Cc2ccc(-c3ccccc3)cc2)NC(=O)[C@H](Cc2ccc(C(=O)O)cc2)NC(=O)[C@H](Cc2cccc(C(F)(F)F)c2)NC(=O)[C@H](CC(=O)O)NC(=O)[C@H](Cc2ccc(C(=O)O)cc2)NC(=O)[C@H](C(C)O)NC(=O)CSC[C@@H](C(=O)N[C@@H](CCN)C(=O)NCCCCCCCCCCC(=O)O)NC(=O)[C@H](CCC(=O)O)NC(=O)[C@H](C(C)C)NC(=O)[C@H](CC2CCCCC2)NC(=O)[C@H](CCN)NC1=O` (stereo partly drawn) [Example 2572] ({CH2CO}-[Thr(3ξ)][Phe(4-COOH)]D[Phe(3-CF3)][Phe(4-COOH)][Bip][Phe(4-COOH)][NMeA][dL][Dab][Cha]VEC[Dab][Aun]-OH; thioether N-14), the IC50 was found to be 11.5 nM.

Take `Cc1cccc(C[C@@H]2NC(=O)[C@H](CC(=O)O)NC(=O)[C@H](Cc3ccc(OCC(=O)O)cc3)NC(=O)[C@H](Cc3ccc(C(F)(F)F)cc3)NC(=O)CSC[C@@H](C(=O)N[C@@H](CCN)C(=O)NCCOCCOCC(=O)NCCCCCCCCCCC(=O)O)NC(=O)[C@H](CCC(=O)O)NC(=O)[C@H](C(C)C)NC(=O)[C@H](CC3CCCCC3)NC(=O)[C@H](CCN)NC(=O)[C@@H](CC(C)C)NC(=O)[C@H](C)N(C)C(=O)[C@H](Cc3ccc(C(=O)O)cc3)NC(=O)[C@H](Cc3ccc(-c4ccccc4)cc3)NC(=O)[C@H](Cc3ccc(C(=O)O)cc3)NC2=O)c1` [Example 2578] ({CH2CO}-[Phe(4-CF3)]Y(Carboxymethyl)D[Phe(3-Me)][Phe(4-COOH)][Bip][Phe(4-COOH)][NMeA][dL][Dab][Cha]VEC[Dab][AEEA][Aun]-OH; thioether N-14): the IC50 amounted to 22.2 nM.

For orientation: IC50 means the concentration that gives 50% inhibition.

The record behind these values is patent publication US20260070945A1, “MACROCYCLIC IMMUNOMODULATORS” (Bristol-Myers Squibb Company, priority 2022, published 2026).
